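Test compounds were applied to cells in 96-well plates for 48 hours at 5 doses. GI50: concentration for 50% inhibition of growth. TGI marks complete inhibition of growth.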
What was measured:
Experiment in all cases: NCI anticancer screen, dose series, 48 h
HCT-15 colon = system: HCT-15 colon
HOP-62 NSCLC = system: HOP-62 NSCLC
HS 578T breast = system: HS 578T breast
IGROV1 ovarian = system: IGROV1 ovarian
EKVX NSCLC = system: EKVX NSCLC
U251 CNS = system: U251 CNS
HCC-2998 colon = system: HCC-2998 colon
SNB-75 CNS = system: SNB-75 CNS
LOX IMVI melanoma = system: LOX IMVI melanoma
OVCAR-4 ovarian = system: OVCAR-4 ovarian
MDA-MB-231 breast = system: MDA-MB-231 breast
NCI-H522 lung = system: NCI-H522 lung
SK-MEL-5 melanoma = system: SK-MEL-5 melanoma
RPMI-8226 leukemia = system: RPMI-8226 leukemia
ACHN renal = system: ACHN renal
SK-MEL-2 melanoma = system: SK-MEL-2 melanoma
SNB-19 CNS = system: SNB-19 CNS
HL-60(TB) leukemia = system: HL-60(TB) leukemia
NCI-H460 lung = system: NCI-H460 lung
RXF 393 renal = system: RXF 393 renal
MCF7 breast = system: MCF7 breast
SK-OV-3 ovarian = system: SK-OV-3 ovarian
A498 renal = system: A498 renal
NCI-H226 lung = system: NCI-H226 lung
COLO 205 colon = system: COLO 205 colon
UACC-257 melanoma = system: UACC-257 melanoma
HOP-92 NSCLC = system: HOP-92 NSCLC
HT29 colon = system: HT29 colon
SF-268 CNS = system: SF-268 CNS
T-47D breast = system: T-47D breast
SW-620 colon = system: SW-620 colon
OVCAR-8 ovarian = system: OVCAR-8 ovarian
SN12C renal = system: SN12C renal
HCT-116 colon = system: HCT-116 colon
UACC-62 melanoma = system: UACC-62 melanoma
NCI-H23 lung = system: NCI-H23 lung
K-562 leukemia = system: K-562 leukemia
A549 NSCLC = system: A549 NSCLC
DU-145 prostate = system: DU-145 prostate
MALME-3M melanoma = system: MALME-3M melanoma
OVCAR-5 ovarian = system: OVCAR-5 ovarian
786-0 renal = system: 786-0 renal
KM12 colon = system: KM12 colon
SF-539 CNS = system: SF-539 CNS
CAKI-1 renal = system: CAKI-1 renal
PC-3 prostate = system: PC-3 prostate
UO-31 renal = system: UO-31 renal
TK-10 renal = system: TK-10 renal
OVCAR-3 ovarian = system: OVCAR-3 ovarian
MOLT-4 leukemia = system: MOLT-4 leukemia
BT-549 breast = system: BT-549 breast
SF-295 CNS = system: SF-295 CNS
SK-MEL-28 melanoma = system: SK-MEL-28 melanoma

C=C(CN1CCN(c2ccccc2F)CC1)c1ccc(C(=O)Nc2ccccc2N)cc1
GI50 (HCT-15 colon): 0.737 µM
TGI (HCT-15 colon): > 100 µM
GI50 (HOP-62 NSCLC): 1.15 µM
TGI (HOP-62 NSCLC): 9.45 µM
GI50 (HS 578T breast): 3.14 µM
TGI (HS 578T breast): > 100 µM
GI50 (IGROV1 ovarian): 0.571 µM
TGI (IGROV1 ovarian): 4.96 µM
GI50 (EKVX NSCLC): 4.67 µM
TGI (EKVX NSCLC): > 100 µM
GI50 (U251 CNS): 1.4 µM
TGI (U251 CNS): 14.7 µM
GI50 (HCC-2998 colon): 3.2 µM
TGI (HCC-2998 colon): 17.7 µM
GI50 (SNB-75 CNS): 2.27 µM
TGI (SNB-75 CNS): 8.14 µM
GI50 (LOX IMVI melanoma): 1.53 µM
TGI (LOX IMVI melanoma): 24.4 µM
GI50 (OVCAR-4 ovarian): 5.01 µM
TGI (OVCAR-4 ovarian): > 100 µM
GI50 (MDA-MB-231 breast): 0.24 µM
TGI (MDA-MB-231 breast): 3.14 µM
GI50 (NCI-H522 lung): 1.48 µM
TGI (NCI-H522 lung): 4.41 µM
GI50 (SK-MEL-5 melanoma): 1.51 µM
TGI (SK-MEL-5 melanoma): 16.8 µM
GI50 (RPMI-8226 leukemia): 1.16 µM
TGI (RPMI-8226 leukemia): 3.78 µM
GI50 (ACHN renal): 2.77 µM
TGI (ACHN renal): > 100 µM
GI50 (SK-MEL-2 melanoma): 8.5 µM
TGI (SK-MEL-2 melanoma): > 100 µM
GI50 (SNB-19 CNS): 3.74 µM
TGI (SNB-19 CNS): > 100 µM
GI50 (HL-60(TB) leukemia): 0.353 µM
TGI (HL-60(TB) leukemia): 2.87 µM
GI50 (NCI-H460 lung): 4.44 µM
TGI (NCI-H460 lung): > 100 µM
GI50 (RXF 393 renal): 0.702 µM
TGI (RXF 393 renal): 7.08 µM
GI50 (MCF7 breast): 0.889 µM
TGI (MCF7 breast): > 100 µM
GI50 (SK-OV-3 ovarian): 7.73 µM
TGI (SK-OV-3 ovarian): > 100 µM
GI50 (A498 renal): 2.51 µM
TGI (A498 renal): 22.9 µM
GI50 (NCI-H226 lung): 2.34 µM
TGI (NCI-H226 lung): 17.3 µM
GI50 (COLO 205 colon): 2.67 µM
TGI (COLO 205 colon): 11.1 µM
GI50 (UACC-257 melanoma): 0.992 µM
TGI (UACC-257 melanoma): 35.3 µM
GI50 (HOP-92 NSCLC): 0.611 µM
TGI (HOP-92 NSCLC): 5.55 µM
GI50 (HT29 colon): 1.19 µM
TGI (HT29 colon): 4.37 µM
GI50 (SF-268 CNS): 2.36 µM
TGI (SF-268 CNS): > 100 µM
GI50 (T-47D breast): 3.84 µM
TGI (T-47D breast): > 100 µM
GI50 (SW-620 colon): 1.97 µM
TGI (SW-620 colon): > 100 µM
GI50 (OVCAR-8 ovarian): 1.92 µM
TGI (OVCAR-8 ovarian): > 100 µM
GI50 (SN12C renal): 1.82 µM
TGI (SN12C renal): 40.9 µM
GI50 (HCT-116 colon): 0.957 µM
TGI (HCT-116 colon): 13.5 µM
GI50 (UACC-62 melanoma): 1.16 µM
TGI (UACC-62 melanoma): 18.3 µM
GI50 (NCI-H23 lung): 1.87 µM
TGI (NCI-H23 lung): 8.88 µM
GI50 (K-562 leukemia): 0.986 µM
TGI (K-562 leukemia): > 100 µM
GI50 (A549 NSCLC): 3.52 µM
TGI (A549 NSCLC): 35.4 µM
GI50 (DU-145 prostate): 1.6 µM
TGI (DU-145 prostate): 6.06 µM
GI50 (MALME-3M melanoma): 1.53 µM
TGI (MALME-3M melanoma): > 100 µM
GI50 (OVCAR-5 ovarian): 1.29 µM
TGI (OVCAR-5 ovarian): > 100 µM
GI50 (786-0 renal): 1.88 µM
TGI (786-0 renal): > 100 µM
GI50 (KM12 colon): 1.53 µM
TGI (KM12 colon): 11.4 µM
GI50 (SF-539 CNS): 1.55 µM
TGI (SF-539 CNS): 6.31 µM
GI50 (CAKI-1 renal): 1.81 µM
TGI (CAKI-1 renal): 7.18 µM
GI50 (PC-3 prostate): 1.21 µM
TGI (PC-3 prostate): 4.01 µM
GI50 (UO-31 renal): 1.32 µM
TGI (UO-31 renal): 17.3 µM
GI50 (TK-10 renal): 1.7 µM
TGI (TK-10 renal): 59.8 µM
GI50 (OVCAR-3 ovarian): 2.14 µM
TGI (OVCAR-3 ovarian): 7.82 µM
GI50 (MOLT-4 leukemia): 0.549 µM
TGI (MOLT-4 leukemia): 4.86 µM
GI50 (BT-549 breast): 1.46 µM
TGI (BT-549 breast): 8.82 µM
GI50 (SF-295 CNS): 2.38 µM
TGI (SF-295 CNS): 18 µM
GI50 (SK-MEL-28 melanoma): 2.57 µM
TGI (SK-MEL-28 melanoma): 53.9 µM

Reference: PubChem BioAssay (NCI)
